Experimental data from publication PMC7645366 (EMBO Molecular Medicine, 2020).
Where “and” joins values, the source holds several entries; their conditions need not be identical. Equal entries are not always repeated. No end group written: not given here.

Columns and labels:
[1] = molecular target: T1, PLY (Streptococcus pneumoniae serotype 4, UniProt P0C2J9); assay type: binding
[2] = system: S. pneumoniae strain T4; test: Hemolytic activity of whole bacteria, S. pneumoniae T4; assay type: cell-based, Streptococcus pneumoniae; settings: 100 μM peptide
Procedure: Human blood from anonymous healthy donors (obtained from Karolinska University Hospital) was diluted 1:100 in PBS with 0.5 mM DTT and mixed 1:1 with twofold serial dilutions of 10^8 CFUs of bacteria or 1 μg/ml purified bacterial toxins in 96‐well plates. The MRC‐1 peptides were serially diluted 10‐fold (1–1,000 μM) in PBS and added to the wells prior to addition of blood. The blood was co‐incubated with whole bacteria or purified toxins at 37°C for 1 h, and after 50 min, 0.1% triton X‐100 was added to the positive control wells. Cells were spun down at 400 g for 15 min and the absorbance of the supernatants was measured at 540 nm in a microplate reader. Percentage of lysis compared to the toxin alone was calculated. All samples were assayed in triplicates.

[3] = system: L. monocytogenes type 1; test: Hemolytic activity of whole bacteria, L. monocytogenes; assay type: cell-based, Listeria monocytogenes; settings: 100 μM peptide
Procedure: All samples were assayed in triplicates.

[4] = molecular target: LLO (Listeria monocytogenes serovar 1/2a, UniProt P13128); test: LDH cytotoxicity assay, THP-1 macrophages, LLO; assay type: cell-based; settings: 100 μM, 18 h; for % cytotoxicity relative to positive control (lysis buffer), LDH: THP-1, LLO 0.5 μg/ml
LLO, sequence (P13128 25-529): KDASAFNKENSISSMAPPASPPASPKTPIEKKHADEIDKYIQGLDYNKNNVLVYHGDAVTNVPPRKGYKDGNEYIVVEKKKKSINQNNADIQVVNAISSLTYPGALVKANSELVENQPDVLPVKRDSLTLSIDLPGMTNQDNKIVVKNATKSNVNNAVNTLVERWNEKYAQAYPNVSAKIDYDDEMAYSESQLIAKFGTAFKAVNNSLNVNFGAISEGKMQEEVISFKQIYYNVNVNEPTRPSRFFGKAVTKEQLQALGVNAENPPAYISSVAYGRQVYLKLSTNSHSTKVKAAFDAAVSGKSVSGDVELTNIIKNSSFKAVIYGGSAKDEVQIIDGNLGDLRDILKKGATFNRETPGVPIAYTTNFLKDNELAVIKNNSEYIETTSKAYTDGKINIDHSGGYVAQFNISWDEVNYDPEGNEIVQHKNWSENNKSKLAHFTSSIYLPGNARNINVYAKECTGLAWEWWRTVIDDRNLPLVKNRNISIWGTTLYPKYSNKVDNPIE
Procedure: Human monocytic leukemia THP‐1 cells (ATCC TIB‐202) were cultivated in R10 medium and maintained at density of 10^6 cells/ml. For differentiation into macrophages, THP‐1 cells were treated for 48 h with 20 ng/ml of phorbol myristate acetate (Sigma).
Cytotoxicity was determined by measuring the activity of lactate dehydrogenase enzyme released into the culture supernatant using the Cytotoxicity Detection kit (Roche) according to the manufacturer's instructions. The percentage cytotoxicity was calculated by ratio to 100% lysis control (0.1% saponin).

[5] = molecular target: T1, PLY; assay type: cell-based
[6] = molecular target: SLO (Streptococcus pyogenes serotype M1, UniProt P0C0I3); assay type: cell-based
SLO, sequence (P0C0I3 34-571 limits assumed): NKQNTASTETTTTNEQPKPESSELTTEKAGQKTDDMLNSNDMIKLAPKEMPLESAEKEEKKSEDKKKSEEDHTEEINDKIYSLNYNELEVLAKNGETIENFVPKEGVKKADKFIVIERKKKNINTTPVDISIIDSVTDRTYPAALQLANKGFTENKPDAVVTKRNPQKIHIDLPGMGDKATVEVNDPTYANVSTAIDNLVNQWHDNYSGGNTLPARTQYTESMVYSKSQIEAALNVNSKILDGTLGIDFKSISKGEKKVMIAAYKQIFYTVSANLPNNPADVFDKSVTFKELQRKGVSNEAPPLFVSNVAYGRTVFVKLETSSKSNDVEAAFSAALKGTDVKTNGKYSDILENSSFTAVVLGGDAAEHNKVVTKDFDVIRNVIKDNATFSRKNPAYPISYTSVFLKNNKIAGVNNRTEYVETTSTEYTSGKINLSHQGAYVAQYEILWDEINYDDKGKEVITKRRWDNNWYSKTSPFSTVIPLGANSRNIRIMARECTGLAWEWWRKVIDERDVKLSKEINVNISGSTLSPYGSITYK

[7] = molecular target: T1, PLY; assay type: cell-based; remark: listed apart in the source
[8] = system: S.pneumoniae T4RΔply; test: Co-localization of intracellular T4RΔply with MRC-1 and LC3B in DCs; assay type: cell-based, Streptococcus pneumoniae; settings: for % bacteria colocalized with MRC-1 / % bacteria colocalized with LC3B / number of bacteria (of n=50) colocalized with LC3B / number of bacteria (of n=50) colocalized with MRC-1: T4RΔply in DCs
[9] = Lung histology (H&E) and clinical symptoms after intranasal administration; settings: mice
Procedure: (F) Hematoxylin and eosin (H&E) staining of mouse lungs at 24 h post intranasal

[10] = system: S. pneumoniae T4; test: Mouse intranasal infection (pneumonia) model: survival, lung bacterial load, lung cytokines
Procedure: Six‐week‐old male C57BL/6 wild‐type mice were used (Charles River, Germany). The study included 10 mice/individual group which were randomly assigned to the different treatment groups. Sample size calculations were determined according to previous experience (Subramanian et al, 2019b). […] The mice were checked at least twice every day; morning at 9 am (referred as “early check”) and evening at 7 pm (referred as “late check”). Post‐mortem, lungs were collected and washed in PBS and homogenized by passing through the 100‐μm cell strainer. Bacterial counts were determined from lung homogenates by viable count on blood agar plates. Aliquots of lung homogenates were frozen at −80°C for cytokine quantification by ELISA.
The levels of TNF‐α, IL‐8, and IL‐12 (p70) in the culture supernatants and mouse lung tissue were analyzed using the OptEIA ELISA kit (BD Biosciences) following the manufacturer's instructions.

T1 sequence (P0C2J9 whole entry, looked up): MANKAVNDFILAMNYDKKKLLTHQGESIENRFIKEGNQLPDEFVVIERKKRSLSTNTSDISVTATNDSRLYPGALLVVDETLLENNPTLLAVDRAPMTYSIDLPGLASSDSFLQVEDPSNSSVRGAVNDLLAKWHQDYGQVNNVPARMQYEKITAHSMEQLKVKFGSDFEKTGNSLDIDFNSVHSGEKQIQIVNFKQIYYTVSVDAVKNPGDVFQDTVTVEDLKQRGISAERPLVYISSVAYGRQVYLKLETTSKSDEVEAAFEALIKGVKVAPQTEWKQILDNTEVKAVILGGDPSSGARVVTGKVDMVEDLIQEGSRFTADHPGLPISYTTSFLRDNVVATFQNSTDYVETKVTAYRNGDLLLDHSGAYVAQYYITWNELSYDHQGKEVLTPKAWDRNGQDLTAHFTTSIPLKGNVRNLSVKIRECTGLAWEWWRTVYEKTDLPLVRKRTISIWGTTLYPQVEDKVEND

FTWSDGSPVSYEN [P2]
binding to PLY in ELISA [1]: bind dose‐dependently
hemolytic activity of pneumococcal strain T4 [2]: significantly reduced
%hemolytic activity relative to positive control (0.1% Triton X) ([2]; T4 312500 CFU/ml, experiment 1 of 3): -0.1%
%hemolytic activity relative to positive control (0.1% Triton X) ([2]; T4 312500 CFU/ml, experiment 2 of 3): 4%
%hemolytic activity relative to positive control (0.1% Triton X) ([2]; T4 312500 CFU/ml, experiment 3 of 3): 4.3%
%hemolytic activity relative to positive control (0.1% Triton X) ([2]; T4 625000 CFU/ml, experiment 1 of 3): -0.4%
%hemolytic activity relative to positive control (0.1% Triton X) ([2]; T4 625000 CFU/ml, experiment 2 of 3): 4.5%
%hemolytic activity relative to positive control (0.1% Triton X) ([2]; T4 625000 CFU/ml, experiment 3 of 3): 4.7%
%hemolytic activity relative to positive control (0.1% Triton X) ([2]; T4 12500000 CFU/ml, experiment 1 of 3): -0.7%
%hemolytic activity relative to positive control (0.1% Triton X) ([2]; T4 12500000 CFU/ml, experiment 2 of 3): 4.6%
%hemolytic activity relative to positive control (0.1% Triton X) ([2]; T4 12500000 CFU/ml, experiment 3 of 3): 4.6%
%hemolytic activity relative to positive control (0.1% Triton X) ([2]; T4 25000000 CFU/ml, experiment 1 of 3): 0.2%
%hemolytic activity relative to positive control (0.1% Triton X) ([2]; T4 25000000 CFU/ml, experiment 2 of 3): 4.4%
%hemolytic activity relative to positive control (0.1% Triton X) ([2]; T4 25000000 CFU/ml, experiment 3 of 3): 20%
%hemolytic activity relative to positive control (0.1% Triton X) ([2]; T4 50000000 CFU/ml, experiment 1 of 3): 15.6%
%hemolytic activity relative to positive control (0.1% Triton X) ([2]; T4 50000000 CFU/ml, experiment 2 of 3): 19.9%
%hemolytic activity relative to positive control (0.1% Triton X) ([2]; T4 50000000 CFU/ml, experiment 3 of 3): 19.6%
%hemolytic activity relative to positive control (0.1% Triton X) ([2]; T4 100000000 CFU/ml, experiment 1 of 3): 32%
%hemolytic activity relative to positive control (0.1% Triton X) ([2]; T4 100000000 CFU/ml, experiment 2 of 3): 30.8%
%hemolytic activity relative to positive control (0.1% Triton X) ([2]; T4 100000000 CFU/ml, experiment 3 of 3): 19.1%
hemolytic activity of L. monocytogenes type 1 [3]: significantly reduced
cell death of macrophages induced by LLO, LDH release ([4]; THP-1, 0.5 μg/ml toxin): significantly reduced cell death
% cytotoxicity relative to positive control (lysis buffer), LDH ([4]; experiment 1 of 4): 50.96%
% cytotoxicity relative to positive control (lysis buffer), LDH ([4]; experiment 2 of 4): 55.95%
% cytotoxicity relative to positive control (lysis buffer), LDH ([4]; experiment 3 of 4): 54.18%
% cytotoxicity relative to positive control (lysis buffer), LDH ([4]; experiment 4 of 4): 52.24%
cytolysis by PLY in live imaging [5]: protection from cytolysis
release of IL‐8, TNF‐α and IL‐12 by THP-1 macrophages, SLO [6]: significantly reduced
IL-8 levels in THP-1 macrophages ([6]; 100uM, 18 h): 426.5 pg/mL and 475.1 pg/mL and 490.7 pg/mL
LDH release of 3D lung tissue model [7]: significantly reduced
co-localization of T4RΔply in DCs ([8]; DCs, 100 μM peptide, MOI 10, 2 h): had no effect
% bacteria colocalized with MRC-1 ([8]; 100 μM peptide, n=50 bacteria, experiment 1 of 2): 6%
% bacteria colocalized with LC3B ([8]; experiment 1 of 2): 94%
number of bacteria (of n=50) colocalized with LC3B ([8]; experiment 1 of 2): 47
number of bacteria (of n=50) colocalized with MRC-1 ([8]; experiment 1 of 2): 3
% bacteria colocalized with LC3B ([8]; experiment 2 of 2): 92%
% bacteria colocalized with MRC-1 ([8]; experiment 2 of 2): 8%
number of bacteria (of n=50) colocalized with LC3B ([8]; experiment 2 of 2): 46
number of bacteria (of n=50) colocalized with MRC-1 ([8]; experiment 2 of 2): 4
toxicity by lung histology analysis (H&E) ([9]; 24 h post intranasal administration, 5 µg peptide/mouse): not toxic
clinical symptoms ([9]; 24 h post‐administration): did not develop any clinical symptoms
Mouse survival, death recorded ([10]; Mouse 1 of its group): 1
Mouse survival, Time (coded) ([10]; Mouse 1 of its group, intranasal 2 × 10^6 CFU T4 with 5 μg peptide/mouse (25 μg CaP NPs)): 4
CFU/ml in mouse lung homogenates ([10]; Mouse 2 of its group): 160000000 CFU/ml
Mouse survival, Time (coded) ([10]; Mouse 2 of its group): 4
Mouse survival, death recorded ([10]; Mouse 2 of its group): 1
CFU/ml in mouse lung homogenates ([10]; Mouse 3 of its group): 160000000 CFU/ml
Mouse survival, Time (coded) ([10]; Mouse 3 of its group): 5
Mouse survival, death recorded ([10]; Mouse 3 of its group): 1
CFU/ml in mouse lung homogenates ([10]; Mouse 4 of its group): 180000000 CFU/ml
Mouse survival, Time (coded) ([10]; Mouse 4 of its group): 6
Mouse survival, death recorded ([10]; Mouse 4 of its group): 0
CFU/ml in mouse lung homogenates ([10]; Mouse 5 of its group): 100000000 CFU/ml
Mouse survival, Time (coded) ([10]; Mouse 5 of its group): 4
Mouse survival, death recorded ([10]; Mouse 5 of its group): 1
CFU/ml in mouse lung homogenates ([10]; Mouse 6 of its group): 2.6E+07 CFU/ml
Mouse survival, Time (coded) ([10]; Mouse 6 of its group): 4
Mouse survival, death recorded ([10]; Mouse 6 of its group): 1
CFU/ml in mouse lung homogenates ([10]; Mouse 7 of its group): 2.5E+07 CFU/ml
Mouse survival, Time (coded) ([10]; Mouse 7 of its group): 4
Mouse survival, death recorded ([10]; Mouse 7 of its group): 1
CFU/ml in mouse lung homogenates ([10]; Mouse 8 of its group): 1.7E+07 CFU/ml
Mouse survival, Time (coded) ([10]; Mouse 8 of its group): 4
Mouse survival, death recorded ([10]; Mouse 8 of its group): 1
CFU/ml in mouse lung homogenates ([10]; Mouse 9 of its group): 1.7E+07 CFU/ml
Mouse survival, Time (coded) ([10]; Mouse 9 of its group): 4
Mouse survival, death recorded ([10]; Mouse 9 of its group): 1
CFU/ml in mouse lung homogenates ([10]; Mouse 10 of its group): 1.0E+07 CFU/ml
Mouse survival, Time (coded) ([10]; Mouse 10 of its group): 5
Mouse survival, death recorded ([10]; Mouse 10 of its group): 1
IL-12 levels in mouse lung homogenates ([10]; animal in data line 1): 4502.5 pg/mL
IL-12 levels in mouse lung homogenates ([10]; animal in data line 2): 3606.25 pg/mL
TNF-a levels in lung ([10]; animal in data line 2): 645.91 pg/mL
IL-12 levels in mouse lung homogenates ([10]; animal in data line 3): 5321.25 pg/mL
TNF-a levels in lung ([10]; animal in data line 3): 377.50 pg/mL
IL-12 levels in mouse lung homogenates ([10]; animal in data line 4): 8600 pg/mL
TNF-a levels in lung ([10]; animal in data line 4): 853.64 pg/mL
IL-12 levels in mouse lung homogenates ([10]; animal in data line 5): 7346.25 pg/mL
TNF-a levels in lung ([10]; animal in data line 5): 703.86 pg/mL
IL-12 levels in mouse lung homogenates ([10]; animal in data line 6): 6002.5 pg/mL
TNF-a levels in lung ([10]; animal in data line 6): 679.08 pg/mL
IL-12 levels in mouse lung homogenates ([10]; animal in data line 7): 5505 pg/mL
TNF-a levels in lung ([10]; animal in data line 7): 828.95 pg/mL
IL-12 levels in mouse lung homogenates ([10]; animal in data line 8): 3275 pg/mL
TNF-a levels in lung ([10]; animal in data line 8): 612.89 pg/mL
IL-12 levels in mouse lung homogenates ([10]; animal in data line 9): 4967.5 pg/mL
TNF-a levels in lung ([10]; animal in data line 9): 782.63 pg/mL
IL-12 levels in mouse lung homogenates ([10]; animal in data line 10): 8335 pg/mL
TNF-a levels in lung ([10]; animal in data line 10): 757.37 pg/mL
levels of TNF‐α and IL‐12 in the lung tissue ([10]; infected mice): significantly reduced
TNF-a levels in lung ([10]; infected mice, post‐sacrifice, animal in data line 1): 263.18 pg/mL
mouse survival ([10]; intranasal T4 2 × 10^6 CFUs, 5 μg peptide/mouse): prolonged survival
CFU/ml in mouse lung homogenates ([10]; post‐mortem, Mouse 1 of its group): 160000000 CFU/ml
